# Columns and labels:
# [1] = Acute toxicity test, single oral administration; format: in vivo; details: in vivo, mouse, Litchfield-Wilcoxon method, 95% confidence interval 3.26-4.78 g/kg (Example 4)
# Description: (§1) Moreover, as a result of an acute toxicity test using mouse to evaluate the general toxicity of the compound according to the present invention, when the compound is single administered via oral route, the LD50 value of the respective compound is 3.5 g/kg or more. Therefore, the compound of the present invention is determined as being very safe.
# (§2) The acute toxicity test was carried out to quantitatively and qualitatively examine the toxicity which occurs within a short period of time after a single administration of the test compound to the experimental animal.
# (§3) In this experiment, the acute toxicity test was conducted using 5-6 weeks ICR male mouse obtained from Korea Experimental Animal Center. From 6 p.m., the day before administration of the test compound, to 9 a.m. the day on which the test compound is administered, mouse was fasted. The test compound was ground and suspended in corn oil and then administered in the dose of 1000 to 6000 mg/kg to the experimental animal. For each dose, 6 animals were used. The test compound was prepared and used on that day, and was single administered via oral route by means of a needle. After the compound of Example 4, as typical example of the compound according to the present invention was administered, the survived and died animals were observed during 14 days.
# ICR male mouse = experiment: Acute toxicity test, single oral administration; format: in vivo; details: 14 days
# Description: as §1, §2, §3
# [2] = test system: serum ALT (alanine aminotransferase); experiment: Effect of inhibiting hepatic disorder induced by carbon tetrachloride: serum ALT; format: in vivo, male ICR mice; details: CCl4 100 μl/kg i.p., compound 50 mg/kg per day oral, 3 days
# Text: First, the effects of allylthiopyridazine derivative of formula (I) for prevention and treatment of hepatic diseases was examined using carbon tetrachloride model and acetaminophen model.
# Carbon tetrachloride model [see, Philippe letteron et al., Biochemical Pharmacology, 39, 12, 2027-2034, 1990] is most frequently used as an experimental model of hepatic disorder and has been established on the basis of the fact that carbon tetrachloride is converted into trichloromethyl free radical (CCl3 .), a highly toxic metabolite, by the action of cytochrome P-450 in body. This metabolite strongly binds with thiol group of liver microsomal membrane protein to produce a lipid radical, which is then converted into peroxy radical in the presence of oxygen, thereby stimulating the peroxidation reaction of membrane lipid. That is, carbon tetrachloride inhibits protein biosynthesis in liver, increases blood ALT (alanine aminotransferase) and causes centrilobular necrosis of liver cells.
# (§4) In the present invention, the inhibiting effect of the compound of formula (I) on hepatic disorder, induced by carbon tetrachloride and acetaminophene, was determined after oral administration of the novel compound according to the present invention to mouse as the experimental animal for 3 days. The degree of liver damage in respective experimental animal was determined by measuring ALT and LDH levels in blood [see, Biol. Pharm. Bull., 20, 4, 381-385, 1997; Toxicology and Applied Pharmacology, 95, 1-11, 1988], and further by removing the liver, staining (×100) the liver with hematoxylin and eosin and then observing with microscope to examine the degree of hepatocyte necrosis.
# Effect of inhibiting hepatic disorder induced by carbon tetrachloride
# (§5) The liver protective effect of the compound according to the present invention was examined according to the known method [see, Philippe letteron et al., Biochemical Pharmacology, 39, 12, 2027-2034, 1990] as specifically described below.
# (§6) The compound according to the present invention was suspended in corn oil and the resulting suspension was administered in an amount of 1.0 ml/kg. Each group was composed of 3 to 10 male ICR mice (5-6 weeks) and the test compound was orally administered for 3 days in the dose of 50 mg/kg per day. After the test compound was administered, carbon tetrachloride was intraperitoneally injected in an amount of 100 μl/kg. In this experiment, silymarin was used as the comparative compound. After 24 hours from administration of carbon tetrachloride, blood was taken from the test animal by cardiac perforation and ALT value in serum was determined. The result obtained is described in the following Table 2 (in which ALT value is represented by mean±SE). The ALT unit in serum was determined by centrifuging blood to separate serum as the supernatant, and then the separated serum were subjected to Reitman-Frankel method by means of a commercially available kit (BC101-O,P, Youngdong Pharm.). That is, DL-alanine and α-ketoglutarate were used as the substrate solution to which 2,4-dinitrophenylhydrazine was added to produce hydrazone. Then, sodium hydroxide was added to hydrazone to colorize and then the absorbance was measured at 505 nm.
# hepatocyte necrosis = experiment: Effect of inhibiting hepatic disorder induced by carbon tetrachloride: hepatocyte necrosis; format: in vivo, male ICR mice; details: CCl4 model, 50 mg/kg per day oral, 3 days
# Description: as §4, §5, §6
# In addition, liver was removed from the test animals, stained (×100) with hematoxylin and eosin and then observed by microscope. The degree of hepatocyte necrosis was evaluated according to the following 5 grades: 0 no lesion, 1 mild lesion, 2 moderate lesion, 3 severe lesion and 4 diffused lesion.
# [3] = test system: serum ALT (alanine aminotransferase); experiment: Effect of inhibiting hepatic disorder induced by acetaminophen (APAP): serum ALT; format: in vivo, male ICR mice; details: APAP 0.5 g/kg oral, compound 50 mg/kg per day oral, 3 days
# Text: (§7) In addition, the liver protective effects of the compound of the present invention can also be confirmed by acetaminophen model [see, Wang et al., Toxicology and applied Pharmacology, 136, 146-154, 1996]. Acetaminophen is rapidly metabolized by CYP2E1 to cause hepatic toxicity, which results in structural and functional change in liver cellular membrane, causing necrosis in hepatic lobule, an increase in blood ALT and LDH (lactate dehydrogenase) levels.
# as §4
# (§8) Effect of inhibiting hepatic disorder induced by acetaminophen (APAP)
# (§9) The liver protective effect of the compound according to the present invention was examined according to the known method [see, Wang et al., Toxicology and applied Pharmacology, 136, 146-154, 1996] as specifically described below.
# (§10) The compound according to the present invention was suspended in corn oil and the resulting suspension was administered in an amount of 1.0 ml/kg. Each group was composed of 3 to 10 male ICR mice (5-6 weeks) and the test compound was orally administered for 3 days in the dose of 50 mg/kg per day. After 2 hours from the last administration of the test compound, acetaminophen was orally administered in an amount of 0.5 g/kg. In this experiment, silymarin was used as the comparative compound. After 22 hours from the administration of acetaminphen, blood was taken from the individual test animal and ALT and LDH values in serum were determined. The results as obtained are described in the following Tables 4 and 5 (in which ALT and LDH values are represented by mean±SE). In addition, liver was removed from the test animals and then observed according to the same manner as Experiment 3 to evaluate the degree of hepatocyte necrosis.
# [4] = test system: serum LDH (lactate dehydrogenase); experiment: Effect of inhibiting hepatic disorder induced by acetaminophen (APAP): serum LDH; format: in vivo, male ICR mice; details: APAP 0.5 g/kg oral, compound 50 mg/kg per day oral, 3 days
# Text: as §7, §4, §8, §9, §10
compound,measurement,setting,value
"C=CCSc1ccc(OC)nn1 [Example 4, 3-methoxy-6-allylthiopyridazine]",LD50 at 336 h,[1],3950 mg/kg
same,D/T (number of died animals / number of test animals),ICR male mouse; 1000 mg/kg,0/6
same,D/T (number of died animals / number of test animals),ICR male mouse; 2000 mg/kg,0/6
same,D/T (number of died animals / number of test animals),ICR male mouse; 3000 mg/kg,1/6
same,D/T (number of died animals / number of test animals),ICR male mouse; 4000 mg/kg,3/6
same,D/T (number of died animals / number of test animals),ICR male mouse; 5000 mg/kg,4/6
same,D/T (number of died animals / number of test animals),ICR male mouse; 6000 mg/kg,6/6
same,Inhibiting rate (serum ALT),[2],57%
same,Serum ALT value,[2]; mean±SE,3966 ± 1116 KA unit/l
same,Degree of necrosis 0: number of animals,hepatocyte necrosis; grade 0 no lesion,0
same,Degree of necrosis 1: number of animals,hepatocyte necrosis; grade 1 mild lesion,1
same,Degree of necrosis 2: number of animals,hepatocyte necrosis; grade 2 moderate lesion,5
same,Degree of necrosis 3: number of animals,hepatocyte necrosis; grade 3 severe lesion,2
same,Degree of necrosis 4: number of animals,hepatocyte necrosis; grade 4 diffused lesion,2
same,Inhibiting rate (serum ALT),[3],97%
same,Serum ALT value,[3]; mean±SE,186 ± 118 KA unit/l
same,Inhibiting rate (serum LDH),[4],99.8%
same,Serum LDH value,[4]; mean±SE,703 ± 83 KA unit/l

# — patent US5942511A, “Allylthiopyridazine derivatives and process for preparing the same” (Kwon; Soon Kyoung, priority 1998, dated 1999)
